Test results as given in patent US20180228720A1, “MELANOGENESIS INHIBITOR” (TAKASAGO INTERNATIONAL CORPORATION, priority 2015, published 2018).

How the values were obtained:
B-16 melanoma cells = assay: Evaluation for melanin production-inhibitory activity against pigment cells; type: cell-based; conditions: cultured 4 days with sample, relative to negative control
Method: With respect to the components (compounds) of Examples 1 to 3 and Reference Example 1 shown in Table 1, the following test was performed, thereby studying the evaluation for melanin production-inhibitory activity.
In a plastic culture flask (25 cm^2), B-16 melanoma cells in a number of 1×10^5 were seeded and cultured in a 10% serum-containing DMEM medium (manufactured by Nippon Suisan Kaisha, Ltd.) in the presence of 5% carbon dioxide at 37° C. One day after the culture, an evaluation sample diluted with ethanol was added, and the cells were further cultured for 4 days. After completion of the culture, the medium was removed, and the cells were rinsed with PBS (phosphate buffer solution). Thereafter, the cells were detached from the plate by using a medium containing trypsin and EDTA (ethylenediaminetetraacetic acid) and harvested by means of centrifugation. The resulting cells were rinsed three times with 1 mL of 5% trichloroacetic acid controlled at 4° C., rinsed twice with 1 mL of an ethanol/diethyl ether (3/1) solution, and then rinsed once with 1 mL of diethyl ether. After drying, 1 mL of 2N sodium hydroxide was added to dissolve the cells at 60° C. After allowing the solution to stand for cooling, an absorbance at 415 nm was measured, thereby measuring the amount of melanin. Each measured value was calculated as a relative value (%) relative to a value of a negative control in which the evaluation sample was not exposed. The evaluation was performed by three times repetition.

[1] = tested on: melanocyte-containing human three-dimensional cultured epidermal model, LabCyte MELANO-MODEL 24; assay: Skin-whitening activity using melanocyte-containing human three-dimensional cultured epidermal tissue (amount of melanin, number of living cells by MTT); type: cell-based; conditions: sample 0.10% (positive control), 2 weeks culture, relative to negative control
Method: A melanocyte-containing human three-dimensional cultured epidermal model, LabCyte […]-MODEL 24 (manufactured by Japan Tissue Engineering Co., Ltd.) was cultured in accordance with an instruction manual. That is, a culture cup having a human cultured epidermis charged therein was soaked in 1.5 mL of an improved melanin production-promoting medium, and an evaluation sample was added in the cup and exposed, followed by culture at 37° C. for 2 weeks in the presence of 5% carbon dioxide. The medium and the evaluation sample were exchanged once every two to three days. After completion of the culture, the number of living cells and the amount of melanin were measured according to the MTT assay by a method described in the instruction manual. Each measured value was calculated as a relative value (%) relative to a value of a negative control in which the evaluation sample was not exposed. The evaluation was performed by three times repetition.

melanin production = conditions: background art, Patent Documents 2 to 4; cited from earlier work

OC[C@H]1O[C@@H](Oc2ccc(O)cc2)[C@H](O)[C@@H](O)[C@@H]1O [Arbutin]
Melanin inhibition ratio (%) (B-16 melanoma cells; 3.13 μg/mL): 39% | Melanin inhibition ratio (%) (B-16 melanoma cells; 6.25 μg/mL): 50% | Melanin inhibition ratio (%) (B-16 melanoma cells; 12.5 μg/mL): 71%

O=c1cc(CO)occ1O [Kojic acid]
Number of living cells (%) ([1]; MTT assay): 92.3 ± 8.8% | Amount of melanin (%) [1]: 48.4 ± 4.0%

C[C@@H]1CC[C@H]2C(C)(C)[C@H]3C[C@@]12CC[C@@]3(C)O [cedrol]
Effect on melanin production (in words) (melanin production): exhibits a melanin production-inhibitory effect

C=CC(C)(O)CCC=C(C)CCC=C(C)C (stereo not shown) [nerolidol]
Effect on melanin production (in words) (melanin production): exhibits a melanin production-inhibitory effect
